From BigSolDB 2.1

SMILES: CS(=O)(=O)c1ccc([C@@H](O)[C@@H](CF)NC(=O)C(Cl)Cl)cc1
- solubility (mole fraction) (in THF, 279.65 K): 0.0293
- solubility (mole fraction) (in THF, 284.55 K): 0.0317
- solubility (mole fraction) (in THF, 289.35 K): 0.0342
- solubility (mole fraction) (in THF, 294.5 K): 0.0374
- solubility (mole fraction) (in THF, 297.65 K): 0.0398
- solubility (mole fraction) (in acetone, 279.25 K): 0.0261
- solubility (mole fraction) (in acetone, 284.35 K): 0.0294
- solubility (mole fraction) (in acetone, 289.1 K): 0.0327
- solubility (mole fraction) (in acetone, 294.45 K): 0.0368
- solubility (mole fraction) (in acetone, 297.75 K): 0.0396
- solubility (mole fraction) (in ethanol, 278.55 K): 0.00126
- solubility (mole fraction) (in ethanol, 283.45 K): 0.00153
- solubility (mole fraction) (in ethanol, 288.8 K): 0.00212
- solubility (mole fraction) (in ethanol, 293.7 K): 0.00259
- solubility (mole fraction) (in ethanol, 298.45 K): 0.00315
- solubility (mole fraction) (in methanol, 278.55 K): 0.00408
- solubility (mole fraction) (in methanol, 283.5 K): 0.00488
- solubility (mole fraction) (in methanol, 288.85 K): 0.00598
- solubility (mole fraction) (in methanol, 293.8 K): 0.00724
- solubility (mole fraction) (in methanol, 298.65 K): 0.00878
- solubility (mole fraction) (in n-propanol, 278.35 K): 0.0008
- solubility (mole fraction) (in n-propanol, 284.05 K): 0.00106
- solubility (mole fraction) (in n-propanol, 289 K): 0.00134
- solubility (mole fraction) (in n-propanol, 293.5 K): 0.00165
- solubility (mole fraction) (in n-propanol, 298.65 K): 0.00211
- solubility (mole fraction) (in water, 278.8 K): 2.48e-05
- solubility (mole fraction) (in water, 283.85 K): 2.86e-05
- solubility (mole fraction) (in water, 289.1 K): 3.62e-05
- solubility (mole fraction) (in water, 293.95 K): 4.64e-05
- solubility (mole fraction) (in water, 298.7 K): 5.49e-05
